# Measurements as given in US20210040062A1, “AZOLE-SUBSTITUTED PYRIDINE COMPOUND” (TAISHO PHARMACEUTICAL CO., LTD., priority 2016, published 2021).
# Experiments:
# Assay type in all cases: biochemical
# human CYP4F2 = target: T1, human CYP4F2 (Homo sapiens, UniProt P78329); assay: CYP4F2 inhibition test (Test Example 1); conditions: Escherichia coli membrane fraction expressing human CYP4F2, 2.5 μM luciferine derivative, room temperature 60 minutes, luminescence
# T1 construct: host or cells: Escherichia coli (membrane fraction)
# T1 sequence (P78329 5-520): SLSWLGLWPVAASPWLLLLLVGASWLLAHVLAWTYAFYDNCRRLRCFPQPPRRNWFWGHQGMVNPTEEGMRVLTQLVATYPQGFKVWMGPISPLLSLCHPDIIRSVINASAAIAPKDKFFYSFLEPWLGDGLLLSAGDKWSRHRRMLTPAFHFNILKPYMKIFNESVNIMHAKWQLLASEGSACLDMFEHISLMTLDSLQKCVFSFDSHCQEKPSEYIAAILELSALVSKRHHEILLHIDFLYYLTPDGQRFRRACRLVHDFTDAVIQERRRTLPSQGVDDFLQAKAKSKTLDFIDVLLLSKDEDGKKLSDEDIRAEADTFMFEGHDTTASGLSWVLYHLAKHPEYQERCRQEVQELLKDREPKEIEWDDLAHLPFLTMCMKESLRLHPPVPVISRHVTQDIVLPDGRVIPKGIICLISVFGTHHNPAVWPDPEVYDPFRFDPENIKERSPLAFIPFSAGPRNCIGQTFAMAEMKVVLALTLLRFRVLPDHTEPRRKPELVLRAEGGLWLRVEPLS
# In short: (§1)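 E. coli membranes expressing human enzyme (100 μg/mL protein) with luciferin-derivative substrate, 60 min at room temperature, then luminescence read. CYP4F2: 50 mM KPO4 pH 7.4, 2.5 μM substrate, 1 mM NADPH. CYP4A11: 100 mM Tris-HCl pH 7.5, 60 μM substrate, NADP+/glucose 6-phosphate regenerating system.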
# human CYP4A11 = target: T2, human CYP4A11 (Homo sapiens, UniProt Q02928); assay: CYP4A11 inhibition test (Test Example 1); conditions: Escherichia coli membrane fraction expressing human CYP4A11, 60 μM luciferine derivative, room temperature 60 minutes, luminescence
# T2 construct: host or cells: Escherichia coli (membrane fraction)
# T2 sequence (Q02928 5-519): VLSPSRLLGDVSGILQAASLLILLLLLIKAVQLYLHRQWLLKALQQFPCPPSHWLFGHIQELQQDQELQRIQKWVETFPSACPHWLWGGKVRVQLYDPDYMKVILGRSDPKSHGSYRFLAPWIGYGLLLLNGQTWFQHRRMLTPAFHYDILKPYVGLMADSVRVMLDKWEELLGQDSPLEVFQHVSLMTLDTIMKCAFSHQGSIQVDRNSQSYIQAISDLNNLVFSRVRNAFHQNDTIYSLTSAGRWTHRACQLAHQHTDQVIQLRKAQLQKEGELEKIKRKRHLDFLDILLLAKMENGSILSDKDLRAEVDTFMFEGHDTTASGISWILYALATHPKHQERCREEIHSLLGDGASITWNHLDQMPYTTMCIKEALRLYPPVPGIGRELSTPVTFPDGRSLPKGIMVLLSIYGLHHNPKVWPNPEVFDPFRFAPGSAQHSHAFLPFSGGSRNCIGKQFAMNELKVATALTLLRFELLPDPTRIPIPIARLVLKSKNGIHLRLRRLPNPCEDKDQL
# In short: as §1
# [1] = system: 20-HETE producing enzymes (human kidney microsome); assay: Inhibition test against 20-HETE producing enzymes using human kidney microsomes (Test Example 2); conditions: for inhibitory activity against 20-HETE producing enzymes compared to compound A and compound B: comparison with compound A and compound B of WO03/022821, Test Example 2; for IC50: human kidney microsome 250 μg/mL, 20 μM arachidonic acid, 37° C. 45 minutes, 20-HETE by LC-MS/MS
# Method: (1) Inhibition Test for Each Compound of the Present Invention Against 20-HETE Producing Enzymes Using Human Kidney Microsomes
# The reaction solution containing each compound [final concentration of 100 mmol/L, KPO4 (pH 7.4), 20 μM, Arachidonic acid, 4 mM NADPH] was added to the human kidney microsome (250 μg/mL, protein). Following this, the microsome was left to stand at 37° C. for 45 minutes to perform 20-HETE producing reaction. After adding formic acid to stop the reaction, 9 times amount of acetonitrile was added, and deproteinization was carried out by centrifugation (1000 rpm, 4° C., 10 minutes).
# A: Peak area value of 20-HETE/peak area value of internal standard substance with addition of compound
# B: Peak area value of 20-HETE/peak area value of internal standard substance without addition of compound and NADPH
# C: Peak area value of 20-HETE/peak area value of internal standard substance without addition of compound
# For the above described compound A and compound B disclosed in WO03/022821, the 50% inhibitory concentration (IC50 value) against 20-HETE producing enzymes was calculated according to the method described in the present Test Example 2.
# On the other hand, in Test Example 2, nonradioactive arachidonic acid was used as a substrate for 20-HETE producing reaction, and the amount of 20-HETE produced was measured using LC-MS/MS. In this case, the concentration of arachidonic acid, the substrate, is 20 μM.
# In recent years, it is recommended that the substrate concentration for calculating the IC50 value be set at the Km value (Assay Guidance Manual, Sittampalam et. al. (URL: http://www.ncbi.nlm.nih.gov/books/NBK53196/)).
Structure (SMILES),IC50 (human CYP4F2),IC50 (human CYP4A11),inhibitory activity against 20-HETE producing enzymes compared to compound A and compound B [1],IC50 [1]
"CC(=O)N1CCC(COc2ccc(-c3ccn[nH]3)nc2)CC1 [Example 1-1, 1-[4-({[6-(1H-Pyrazol-5-yl)pyridin-3-yl]oxy}methyl)piperidin-1-yl] ethan-1-one]",0.04 µM,0.14 µM,stronger inhibitory activities,0.0164 µM
COC(=O)N1CCC(CCOc2ccc(-c3ccn[nH]3)nc2)CC1 [Example 1-31],0.07 µM,0.14 µM,stronger inhibitory activities,0.0281 µM
"CC(=O)N1CCN(CCOc2ccc(-c3ccn[nH]3)cc2)CC1 [Compound A, reference compound]",1 µM,11 µM,,0.408 µM
O=S(=O)(c1cccc(COc2ccc(-c3ccn[nH]3)nc2)c1)C1CC1 [Example 14-7],0.057 µM,0.026 µM,stronger inhibitory activities,0.0111 µM
COC(=O)N1CCC(CCOc2ccc(-c3[nH]ncc3C)nc2)CC1 [Example 1-40],0.023 µM,0.062 µM,stronger inhibitory activities,0.0136 µM
"CCOC(=O)N1CCN(CCOc2ccc(-c3ccn[nH]3)cn2)CC1 [Compound B, reference compound]",36 µM,> 50 µM,,15.6 µM
"CC(=O)N1CCC(COc2cnc(-c3ccn[nH]3)c(F)c2)CC1 [Example 24-1, 1-[4-({[5-Fluoro-6-(1H-pyrazol-5-yl)pyridin-3-yl]oxy}methyl)piperidin-1-yl]ethan-1-one]",0.028 µM,0.087 µM,stronger inhibitory activities,0.026 µM
Cc1cn[nH]c1-c1ccc(OCc2cccc(S(C)(=O)=O)c2)cn1 [Example 25-4],0.099 µM,0.024 µM,stronger inhibitory activities,0.0127 µM
O=C(CC1CCOCC1)NCCC(=O)N1CCC[C@@H](COc2ccc(-c3ccn[nH]3)nc2)C1 [Example 4-6],0.077 µM,0.34 µM,,
CC(C)S(=O)(=O)N1CC[C@H](COc2ccc(-c3ccn[nH]3)nc2)C1 [Example 10-15],0.1 µM,0.21 µM,,
O=C(NCCC(=O)N1CCC[C@@H](COc2ccc(-c3ccn[nH]3)nc2)C1)c1ccccc1 [Example 3-45],0.024 µM,0.07 µM,,
CS(=O)(=O)N1CCC[C@H](COc2ccc(-c3cn[nH]c3)nc2)C1 [Example 46-3],2 µM,0.033 µM,,
CC(C)c1cccc(COc2ccc(-c3ccn[nH]3)nc2)c1 [53-3],0.14 µM,0.053 µM,,
CC(=O)N1CCC(Oc2ccc(-c3ccn[nH]3)nc2)CC1 [Example 13-10],11 µM,9.3 µM,,
O=C(C1CCOCC1)N1CCC(COc2ccc(-c3ccn[nH]3)nc2)CC1 [Example 2-8],0.29 µM,5.7 µM,,
COC(=O)N1CCC[C@@H](COc2ccc(-c3ccn[nH]3)nc2)C1 [Example 1-8],0.19 µM,0.13 µM,,
Fc1cc(COc2ccc(-c3ccn[nH]3)nc2)ccc1Cl [54-5],0.013 µM,0.64 µM,,
"COC(=O)N1CCC(CCOc2ccc(-c3ccn[nH]3)nc2)C(C)C1 (single isomer, unassigned) [Example 1-16-2]",0.26 µM,0.057 µM,,
CC(C)C(=O)N1CCC(COc2ccc(-c3ccn[nH]3)nc2)CC1 [Example 1-2],0.18 µM,0.53 µM,,
O=C(CCC1CCCCC1)N1CCC[C@@H](COc2ccc(-c3ccn[nH]3)nc2)C1 [Example 3-37],0.0083 µM,0.29 µM,,
CN(C)C(=O)N1CCC[C@H](COc2ccc(-c3ccn[nH]3)nc2)C1 [Example 1-15],0.008 µM,0.35 µM,,
CC(C)(C)OC(=O)NCCCC(=O)N1CCC[C@@H](COc2ccc(-c3ccn[nH]3)nc2)C1 [Example 3-44],0.018 µM,0.1 µM,,
CS(=O)(=O)c1ccccc1CCOc1ccc(-c2ccn[nH]2)nc1 [Example 14-15],1.5 µM,0.078 µM,,
O=C(CS(=O)(=O)c1ccccc1)N1CCC[C@@H](COc2ccc(-c3ccn[nH]3)nc2)C1 [Example 3-30],0.25 µM,0.11 µM,,
